For 22 compounds, EC50 results are on record in patent publication US20250268903A1, “RXFP1 AGONISTS” (BRISTOL-MYERS SQUIBB COMPANY, priority 2021, published 2025).

For the experiment, the target named is T1, human RXFP1 (Homo sapiens, UniProt Q9HBX9).
T1 construct: expressed in transfected cells
T1 sequence (Q9HBX9 1-757): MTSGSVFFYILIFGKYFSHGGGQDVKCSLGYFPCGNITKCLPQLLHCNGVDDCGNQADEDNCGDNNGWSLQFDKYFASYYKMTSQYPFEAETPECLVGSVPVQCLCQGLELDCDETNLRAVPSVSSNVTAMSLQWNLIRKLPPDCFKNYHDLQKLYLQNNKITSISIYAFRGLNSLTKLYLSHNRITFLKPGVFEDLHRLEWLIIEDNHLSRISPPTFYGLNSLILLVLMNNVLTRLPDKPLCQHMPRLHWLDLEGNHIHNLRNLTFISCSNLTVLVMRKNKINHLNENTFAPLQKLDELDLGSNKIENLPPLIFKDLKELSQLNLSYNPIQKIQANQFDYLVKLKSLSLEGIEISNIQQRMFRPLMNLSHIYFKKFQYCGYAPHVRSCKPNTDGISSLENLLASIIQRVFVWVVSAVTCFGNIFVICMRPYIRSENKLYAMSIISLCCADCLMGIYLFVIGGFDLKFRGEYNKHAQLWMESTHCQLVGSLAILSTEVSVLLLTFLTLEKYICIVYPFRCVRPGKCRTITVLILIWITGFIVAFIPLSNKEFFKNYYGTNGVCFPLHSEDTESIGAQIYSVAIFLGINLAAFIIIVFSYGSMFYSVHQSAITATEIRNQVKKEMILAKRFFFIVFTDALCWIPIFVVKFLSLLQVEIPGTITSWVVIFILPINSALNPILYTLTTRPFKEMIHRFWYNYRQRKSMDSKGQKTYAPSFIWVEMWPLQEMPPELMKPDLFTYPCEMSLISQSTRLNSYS
The experiment is described as follows: hRXFP1 HEK293 cAMP assay (HTRF). The experiment is classed as cell-based. The conditions noted are these: HEK293 cells stably expressing human RXFP1, 30 min at room temperature. The method, boiled down: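 HEK293 cells stably expressing human RXFP1 (1500 cells/well) in HBSS/20 mM HEPES/0.05% BSA/0.5 mM IBMX. Compounds were tested at 0.010 nM–50 μM final (2% DMSO) for 30 min at room temperature. cAMP was measured by HTRF and values derived by 4-parameter logistic fit.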
In the case of `COc1ccc(COc2cccc(C(=O)O)c2)cc1C(=O)N[C@H]1[C@@H](C(=O)Nc2ccc(F)c(C(F)(F)F)c2)[C@H]2CC[C@@H]1/C2=C\C1CC1` [Example 12, 3-((3-(((1R,2R,3S,4R,Z)-7-(cyclopropylmethylene)-3-((4-fluoro-3-(trifluoromethyl)phenyl)carbamoyl)bicyclo[2.2.1]heptan-2-yl)carbamoyl)-4-methoxybenzyl)oxy)benzoic acid], the EC50 was found to be 0.01 µM. `COc1ccc(CCCCCC#N)cc1C(=O)NC1C2CCC(/C2=C/C(F)(F)F)[C@@H]1C(=O)Nc1ccc(F)c(C(F)(F)F)c1` (stereo partly shown) [Example 181, (7Z)-3-[5-(5-cyanopentyl)-2-methoxybenzamido]-N-[4-fluoro-3-(trifluoromethyl)phe-nyl]-7-(2,2,2-trifluoroethylidene)bi-cyclo[2.2.1]heptane-2-carboxamide] showed an EC50 of 0.103 µM. Turning to `COc1ccc(S(=O)(=O)Cc2ccccc2)cc1C(=O)N[C@@H]1C2CCC(/C2=C/C(F)(F)F)[C@@H]1C(=O)Nc1ccc(F)c(C(F)(F)F)c1` (stereo partly drawn) [Example 3, (2S,3R,7Z)-N-[4-fluoro-3-(trifluoromethyl)phe-nyl]-3-(2-methoxy-5-phenylmethanesulfo-nylbenzamido)-7-(2,2,2-trifluoroethylidene)bi-cyclo[2.2.1]heptane-2-carboxamide], the EC50 came to 0.56 µM. Against the preceding compound, the EC50 is about 5.4-fold higher. As to `COc1ccc(CCCCO)cc1C(=O)N[C@@H]1C2CCC(/C2=C/C2CCC2)[C@@H]1C(=O)Nc1ccc(F)c(C(F)(F)F)c1` (stereo partly drawn) [Example 96, (2S,3R,7Z)-7-(cyclobutylmethyli-dene)-N-[4-fluoro-3-(trifluoromethyl)phe-nyl]-3-[5-(4-hydroxybutyl)-2-methoxybenzamido] bicyclo[2.2.1]heptane-2-carboxamide], it took 0.046 µM to reach a half-maximal effect (EC50). The compound `COc1ccc(CCCO)cc1C(=O)N[C@H]1[C@@H](C(=O)NCC(C)(C)C)[C@H]2CC[C@@H]1/C2=C\C1CC1` [Example 270, (1R,2S,3R,4R,7Z)-7-(cyclopropylmethyl-idene)-N-(2,2-dimethylpropyl)-3-[5-(3-hydroxypropyl)-2-methoxybenzamido] bicyclo[2.2.1]heptane-2-carboxamide] registered an EC50 of 0.685 µM.

Take `COc1ccc(S(=O)(=O)N2CCO[C@@H](CO)C2)cc1C(=O)NC1C2CCC(/C2=C/C2CC2)[C@@H]1C(=O)Nc1ccc(F)c(C(F)(F)F)c1` (stereo partly drawn) [Example 201, (2S,3R,7Z)-7-(cyclopropylmethyli-dene)-N-[4-fluoro-3-(trifluoromethyl)phe-nyl]-3-(5-{[(2R)-2-(hydroxymethyl)mor-pholin-4-yl]sulfonyl}-2-methoxybenzamido) bicyclo[2.2.1]heptane-2-carboxamide]: the midpoint of the response, the EC50, lay at 0.014 µM. In turn, `COc1ccc(C2CCCC(OC(=O)Nc3ccccc3)C2)cc1C(=O)N[C@@H]1C2CCC(/C2=C/C(F)(F)F)[C@@H]1C(=O)Nc1ccc(F)c(C(F)(F)F)c1` (single isomer, unassigned) [Example 40] showed an EC50 of 0.019 µM. This EC50 and that of the compound before are within 1.5-fold of each other. Take `COCC/C=C1\C2CCC1[C@H](C(=O)Nc1ccc(F)c(C(F)(F)F)c1)C2NC(=O)c1cc(CCCO)ccc1OC` (stereo partly shown) [Example 161, (7Z)-N-[4-fluoro-3-(trifluoromethyl)phe-nyl]-3-[5-(3-hydroxypropyl)-2-methoxybenzamido]-7-(3-methoxypropylidene) bicyclo[2.2.1]heptane-2-carboxamide]: the EC50 was found to be 1.16 µM. Take `COc1ccc(CC[C@@H](C)O)cc1C(=O)N[C@@H]1C2CCC(/C2=C/C2CC2)[C@@H]1C(=O)Nc1ccc(F)c(C(F)(F)F)c1` (stereo partly drawn) [Example 95, (2S,3R,7Z)-7-(cyclopropylmethyli-dene)-N-[4-fluoro-3-(trifluoromethyl)phe-nyl]-3-{5-[(3R)-3-hydroxybutyl]-2-methoxybenzamido} bicyclo[2.2.1]heptane-2-carboxamide]: it took 0.05 µM to reach a half-maximal effect (EC50). For the compound `COc1ccc(N(Cc2ccccc2)Cc2ccccc2)cc1C(=O)N[C@H]1[C@@H](C(=O)Nc2ccc(F)c(C(F)(F)F)c2)[C@H]2CC[C@@H]1/C2=C\C1CC1` [Example 1, (1R,2S,3R,4R,Z)-7-(cyclopropylmethylene)-3-(5-(dibenzylamino)-2-methoxybenzamido)-N-(4-fluoro-3-(trifluoromethyl)phenyl) bicyclo[2.2.1]heptane-2-carboxamide], a half-maximal effect (EC50) was put at 0.675 µM. Against the preceding compound, the EC50 is about 14-fold higher. `COc1ccc(CCC2CCOCC2)cc1C(=O)NC1C2CCC(/C2=C/C(F)(F)F)[C@@H]1C(=O)Nc1ccc(F)c(C(F)(F)F)c1` (stereo partly shown) [Example 180, (7Z)-N-[4-fluoro-3-(trifluoromethyl)phe-nyl]-3-{2-methoxy-5-[2-(oxan-4-yl)ethyl]benzamido}-7-(2,2,2-trifluoroethylidene)bi-cyclo[2.2.1]heptane-2-carboxamide]: a half-maximal response (EC50) required 0.168 µM.

`COc1ccc(CCC(C)(C)O)cc1C(=O)NC1C2CCC(/C2=C/CC(C)(C)C)[C@@H]1C(=O)Nc1ccc(F)c(C(F)(F)F)c1` (stereo partly shown) [Example 163, (7Z)-7-(3,3-dimethylbutylidene)-N-[4-fluoro-3-(trifluoromethyl)phe-nyl]-3-[5-(3-hydroxy-3-methylbutyl)-2-methoxybenzamido] bicyclo[2.2.1]heptane-2-carboxamide] displayed an EC50 of 0.278 µM. The compound `COc1c(F)cc(C2CC3CC(CO)CC3C2)cc1C(=O)N[C@H]1[C@@H](C(=O)Nc2ccc(F)c(C(F)(F)F)c2)[C@H]2CC[C@@H]1/C2=C\C1CCCC1` (stereo partly drawn) [Example 370, (1R,2S,3R,4R,7Z)-7-(cyclopentyl-methylidene)-N-[4-fluoro-3-(trifluoromethyl)phenyl]-3-{3-fluoro-5-[5-(hydroxymethyl)-octahydropentalen-2-yl]-2-methoxybenzamido} bicyclo[2.2.1]heptane-2-carboxamide] came in with an EC50 of 0.0097 µM.

As to `COc1ccc(C(C)(C)CCO)cc1C(=O)N[C@H]1[C@@H](C(=O)Nc2ccc(F)c(C(F)(F)F)c2)[C@H]2CC[C@@H]1/C2=C\C1CC1` [Example 269, (1R,2S,3R,4R,7Z)-7-(cyclopropyl-methylidene)-N-[4-fluoro-3-(trifluoromethyl)phenyl]-3-[5-(4-hydroxy-2-methylbutan-2-yl)-2-methoxybenzamido] bicyclo[2.2.1] heptane-2-carboxamide], a half-maximal response (EC50) required 0.244 µM.

In turn, `COc1ccc(S(=O)(=O)N2CCOCC2)cc1C(=O)NC1C2CCC(/C2=C/C(F)(F)F)[C@@H]1C(=O)Nc1ccc(F)c(C(F)(F)F)c1` (stereo partly drawn) [Example 199, (2S,3R,7Z)-N-[4-fluoro-3-(trifluoromethyl)phe-nyl]-3-[2-methoxy-5-(morpholine-4-sulfonyl)benzamido]-7-(2,2,2-triflurooethylidene)bi-cyclo[2.2.1]heptane-2-carboxamide] yielded an EC50 of 0.719 µM. With `COc1cc2c(cc1C(=O)N[C@H]1[C@@H](C(=O)Nc3ccc(F)c(C(F)(F)F)c3)[C@H]3CC[C@@H]1/C3=C\C(F)(F)F)CCC2` [Example 273, [(1R,2R,3S,4R,7Z)-3-{[4-fluoro~3-(trifluoromethyl)phenyl]carbamoyl}-7-(2,2,2-trifluoroethylidene)bicyclo[2.2.1]heptan-2-yl]-6-methoxy-2,3-dihydro-IH-indene-5-carboxamide], the midpoint of the response, the EC50, lay at 3.44 µM.

For the compound “(1R,4R,7Z)-N-[4- fluoro-3- (trifluoromethyl) phenyl]-3-[5-(3- hydroxy-3- methylbutyl)-2- methoxybenzamido 1-7-[(oxolan-3- yl)methylidene] bicyclo[2.2.1] heptane- 2-carboxamide [Example 267]”, it took 0.246 µM to reach a half-maximal effect (EC50).

The compound `COc1ccc(C2CCC(O)CC2)cc1C(=O)NC1C2CCC(/C2=C/C(F)(F)F)[C@@H]1C(=O)Nc1ccc(F)c(C(F)(F)F)c1` (single isomer, unassigned) [Example 52] yielded an EC50 of 0.276 µM. With `COc1ccc(COCC(=O)O)cc1C(=O)N[C@@H]1C2CCC(/C2=C/c2ccccc2)[C@@H]1C(=O)Nc1ccc(F)c(C(F)(F)F)c1` (stereo partly drawn) [Example 29, 2-[(3-{[(2R,3S,7Z)-3-{[4-fluoro-3-(trifluoromethyl)phe-nyl]carbamoyl}-7-(phenylmethylidene)bicyclo[2.2.1]heptan-2-yl]carbamoyl}-4-methoxyphenyl)meth-oxy]acetic acid], a half-maximal effect (EC50) was put at 0.4 µM. As for `COc1ccc(C2=CC(=O)CCC2)cc1C(=O)N[C@@H]1C2CCC(/C2=C/C(F)(F)F)[C@@H]1C(=O)Nc1ccc(F)c(C(F)(F)F)c1` (stereo partly shown) [Example 34], the EC50 amounted to 0.47 µM. With `COc1ccc(CCC(F)(F)F)cc1C(=O)NC1C2CCC(/C2=C/C(F)(F)F)[C@@H]1C(=O)Nc1ccc(F)c(C(F)(F)F)c1` (stereo partly shown) [Example 187, (7Z)-N-[4-fluoro-3-(trifluoromethyl)phe-nyl]-3-[2-methoxy-5-(3,3,3-trifluoropropyl)benz-amido]-7-(2,2,2-trifluoroethylidene)bi-cyclo[2.2.1]heptane-2-carboxamide] the figure was 0.385 µM. With “(1R,4R,7Z)-N-[4- fluoro-3- (trifluoromethyl) phenyl]-3-[5-(3- hydroxypropyl)-2- methoxybenzamido]- 7-[(oxan-3- yl)methylidene] bicyclo[2.2.1]heptane- 2-carboxamide [Example 263]” the figure was 0.318 µM.
